Drawing on EP4778929A1, “NOVEL TYPE I TOPOISOMERASE INHIBITOR, AND PREPARATION METHOD THEREFOR AND USE THEREOF” (priority 2023, dated 2025), this text covers IC50 for 26 molecules.

As a reminder, the IC50 is the concentration needed to halve the response being measured.

The test system of the test is HCT116 cells. Kind of test: Inhibition of cell proliferation by CTG (CellTiter-Glo) luminescence assay. The class given is cell-based. The following applies: Homo sapiens, HCT-116; 72 h incubation, CellTiter-Glo; read-out: HCT116, IC50. From the text: Test Example 2. Determination of Compound-Mediated Inhibition of Cell Proliferation by CTG (CellTiter-Glo) Luminescence Assay
Principle: The Promega CellTiter-Glo™ luciferase reagent was used. Luciferase consumes ATP to generate light; metabolically active cells continuously produce ATP through respiration and other processes. After adding an equal volume of CellTiter-Glo™ reagent to the culture medium, the resulting luminescence is directly proportional to the ATP content, which in turn correlates with the number of viable cells. Thus, the assay quantifies compound-induced suppression of cell proliferation.
Experimental Procedure: HCT116 cells (ATCC) were revived in complete medium (McCoy's 5a + 10 % FBS). After two passages, exponentially growing cells were harvested, counted, and resuspended to the appropriate density. A 100 µL aliquot of cell suspension (2 000 cells per well) was seeded into 96-well plates and incubated overnight (37 °C, 5 % CO2, 100 % relative humidity). Test compounds were dissolved in DMSO to prepare 10 mM stock solutions and serially diluted 1:3 in DMSO to generate nine concentration steps. Each DMSO solution was further diluted 200-fold into medium; 25 µL of the resulting solutions were added to the cell plates (final DMSO concentration […]). After 72 h incubation (37 °C, 5 % CO2), 50 µL of CellTiter-Glo reagent was added per well. Plates were shaken gently, incubated for 30 min at room temperature in the dark, and luminescence was read on an EnVision multimode reader. Percent inhibition was calculated as: Inhibition % = (1−As/Ac) × 100, [formula] where As = signal from compound-treated wells and Ac = signal from DMSO-only control wells. Concentration-response data were fitted in Excel with the XLfit add-in using the four-parameter logistic equation: Y = Bottom + (Top−Bottom)/[1+((IC50/X))^(∧)HillSlope], [formula] to derive the IC50 value for each compound. Table 2. IC50 of compounds
In general terms: Cellular ATP, detected with luciferase, serves as a proxy for viable cell number.
On to `CC[C@@]1(O)C(=O)OCc2c1cc1n(c2=O)Cc2c-1c(=O)c1cc(F)c([C@H](O)C(F)(F)F)cc1n2C1CCCC1` (single isomer, unassigned) [Example 347], for which the half-inhibitory concentration (IC50) was under 20 nM.
Consider `CCN1CC[C@@H](n2c3c(c(=O)c4cc(F)ccc42)-c2cc4c(c(=O)n2C3)COC(=O)[C@]4(O)CC)C1` [Example 251, (S)-4-ethyl-8-fluoro-4-hydroxy-11-((R)-1-ethylpyrrolidin-3-yl)-1,12-dihydro-14H-pyrano[3',4':6,7]indolizino[2,1-b] quinoline-3,6,14(4H,11H)-trione], for which the IC50 was under 20 nM.
To `CC[C@@]1(O)C(=O)OCc2c1cc1n(c2=O)Cc2c-1c(=O)c1cc(F)ccc1n2[C@@H]1CCN(C2CC(C)(C)C2)C1` [Example 254, (S)-4-ethyl-8-fluoro-4-hydroxy-11-((R)-1-(3,3-dimethylcyclobutyl)pyrrolidin-3-yl)-1,12-dihydro-14H-pyrano[3',4':6,7]indolizino[2,1-b]quinoline-3,6,14(4H,11H)-trione] belongs under 20 nM; to `CC[C@@]1(O)C(=O)OCc2c1cc1n(c2=O)Cc2c-1c(=O)c1cc(F)ccc1n2[C@@H]1CCN(C2CC(F)(F)C2)C1` [Example 255, (S)-4-ethyl-8-fluoro-4-hydroxy-11-((R)-1-(3,3-difluorocyclobutyl)pyrrolidin-3-yl)-1,12-dihydro-14H-pyrano[3',4':6,7]indolizino[2,1-b]quinoline-3,6,14(4H,11H)-trione], under 20 nM; to `CCCN1CC[C@@H](n2c3c(c(=O)c4cc(F)ccc42)-c2cc4c(c(=O)n2C3)COC(=O)[C@]4(O)CC)C1` [Example 258, (S)-4-ethyl-8-fluoro-4-hydroxy-11-((R)-1-n-propylpyrrolidin-3-yl)-1,12-dihydro-14H-pyrano[3',4':6,7]indolizino[2,1-b] quinoline-3,6,14(4H,11H)-trione], under 20 nM.
Turning to `CC[C@@]1(O)C(=O)OCc2c1cc1n(c2=O)Cc2c-1c(=O)c1cc(F)ccc1n2[C@@H]1CCN(CC(C)C)C1` [Example 260, (S)-4-ethyl-8-fluoro-4-hydroxy-11-((R)-1-isobutylpyrrolidin-3-yl)-1H-pyrano[3',4':6,7]indolizino[2,1-b]quinoline-3,6,14 (4H,11H,12H)-trione], the IC50 was under 20 nM.
Under `CCC(CC)N1CC[C@@H](n2c3c(c(=O)c4cc(F)ccc42)-c2cc4c(c(=O)n2C3)COC(=O)[C@]4(O)CC)C1` [Example 261, (S)-4-ethyl-8-fluoro-4-hydroxy-11-((R)-1-(pentan-3-yl)pyrrolidin-3-yl)-1H-pyrano[3,4:6,7]indolizino[2,1-b]quinoline-3,6,14 (4H,11H,12H)-trione] stands under 20 nM; under `CC[C@@]1(O)C(=O)OCc2c1cc1n(c2=O)Cc2c-1c(=O)c1cc(F)ccc1n2[C@@H]1CCN(C(C)C)C1` [Example 263, (S)-4-ethyl-8-fluoro-4-hydroxy-11-((R)-1-isopropylpyrrolidin-3-yl)-1H-pyrano[3,4:6,7]indolizino[2,1-b]quinoline-3,6,14 (4H,11H,12H)-trione], under 20 nM.
As for `CC[C@@]1(O)C(=O)OCc2c1cc1n(c2=O)Cc2c-1c(=O)c1cc(F)ccc1n2[C@@H]1CCN(C2CCC(F)(F)CC2)C1` [Example 267, (S)-11-((R)-1-(4,4-difluorocyclohexyl)pyrrolidin-3-yl)-4-ethyl-8-fluoro-4-hydroxy-1H-pyrano[3,4:6,7]indolizino[2,1-b]quinoline-3,6,14(4H,11H,12H)-trione], the concentration for half-maximal inhibition (IC50) was under 20 nM.
For the molecule `CC[C@@]1(O)C(=O)OCc2c1cc1n(c2=O)Cc2c-1c(=O)c1cc(F)ccc1n2[C@@H]1CCN(C2CC3(CCC3)C2)C1` [Example 270, (S)-4-ethyl-8-fluoro-4-hydroxy-11-((R)-1-(spiro[3.3]heptan-2-yl)pyrrolidin-3-yl)-1H-pyrano[3,4:6,7]indolizino[2,1-b] quinoline-3,6,14(4H,11H,12H)-trione], the IC50 is under 20 nM.
As to `CC[C@@]1(O)C(=O)OCc2c1cc1n(c2=O)Cc2c-1c(=O)c1cc(F)ccc1n2[C@@H]1CCN(C2CC3(CC3)C2)C1` [Example 271, (S)-4-ethyl-8-fluoro-4-hydroxy-11-((R)-1-(spiro[2.3]hexan-5-yl)pyrrolidin-3-yl)-1H-pyrano[3',4':6,7]indolizino[2,1-b]quinoline-3,6,14(4H,11H,12H)-trione], the 50% inhibitory concentration (IC50) was under 20 nM.
Under `CC[C@@]1(O)C(=O)OCc2c1cc1n(c2=O)Cc2c-1c(=O)c1cc(F)ccc1n2[C@@H]1CCN(C2CC3CC3C2)C1` (stereo partly drawn) [Example 273, (4S)-11-((3R)-1-(bicyclo[3.1.0]hexan-3-yl)pyrrolidin-3-yl)-4-ethyl-8-fluoro-4-hydroxy-1H-pyrano[3',4':6,7]indolizino[2,1-b]quinoline-3,6,14(4H,11H,12H)-trione] stands under 20 nM; under `CC[C@@]1(O)C(=O)OCc2c1cc1n(c2=O)Cc2c-1c(=O)c1cc(F)ccc1n2[C@@H]1CCN(C2CC2)C1` [Example 274, (4S)-11-((3R)-1-cyclopropylpyrrolidin-3-yl)-4-ethyl-8-fluoro-4-hydroxy-1H-pyrano[3',4':6,7]indolizino[2,1-b]quinoline-3,6,14(4H,11H,12H)-trione], under 20 nM; under `CC[C@@]1(O)C(=O)OCc2c1cc1n(c2=O)Cc2c-1c(=O)c1cc(F)c(F)cc1n2[C@@H]1CCN(C)C1` [Example 277], under 20 nM.
To `CC[C@@]1(O)C(=O)OCc2c1cc1n(c2=O)Cc2c-1c(=O)c1cc(F)c(C)cc1n2[C@@H]1CCN(C2CC(F)(F)C2)C1` [Example 280] belongs under 20 nM; to `CC[C@@]1(O)C(=O)OCc2c1cc1n(c2=O)Cc2c-1c(=O)c1cc(F)c(Cl)cc1n2[C@@H]1CCN(C2CCC2)C1` [Example 282], under 20 nM.
Under `CC[C@@]1(O)C(=O)OCc2c1cc1n(c2=O)Cc2c-1c(=O)c1cc(F)c(Cl)cc1n2[C@@H]1CCN(C)C1` [Example 283] stands under 20 nM; under `CC[C@@]1(O)C(=O)OCc2c1cc1n(c2=O)Cc2c-1c(=O)c1cc(F)c(CO)cc1n2C1CC2(CCC2)C1` [Example 312], under 20 nM.
As for `CC[C@@]1(O)C(=O)OCc2c1cc1n(c2=O)Cc2c-1c(=O)c1cc(F)c(CC(C)O)cc1n2C1CCC(C)(C)CC1` (some centres unmarked) [Example 317], the IC50 is under 20 nM.
In the case of `CCC1(O)C(=O)OCc2c1cc1n(c2=O)Cc2c-1c(=O)c1cc(F)c(CO)cc1n2C12CC(C1)C2` (centres unmarked) [Example 327], the 50% inhibitory concentration (IC50) was under 20 nM.
To `CC[C@@]1(O)C(=O)OCc2c1cc1n(c2=O)Cc2c-1c(=O)c1cc(F)c(N)cc1n2-c1cc(C)cc(C)c1` [Example 350] belongs under 20 nM.
Consider `CC[C@@]1(O)C(=O)OCc2c1cc1n(c2=O)Cc2c-1c(=O)c1cc(F)c(N)cc1n2C1CC2(CCC2)C1` [Example 358], for which the IC50 is under 20 nM.
To `CC[C@@]1(O)C(=O)OCc2c1cc1n(c2=O)Cc2c-1c(=O)c1cc(F)c(N)cc1n2C12CC(C1)C2` [Example 359] belongs under 20 nM.
Under `CC[C@@]1(O)C(=O)OCc2c1cc1n(c2=O)Cc2c-1c(=O)c1cc(F)ccc1n2[C@@H]1CCCN(C2CCCC2)C1` [Example 370] stands under 20 nM.
For `CC[C@@]1(O)C(=O)OCc2c1cc1n(c2=O)Cc2c-1c(=O)c1cc(F)ccc1n2[C@H]1CCCN(C2CC(F)(F)C2)C1` [Example 372], the IC50 was under 20 nM.
`CC[C@@]1(O)C(=O)OCc2c1cc1n(c2=O)Cc2c-1c(=O)c1cc(F)ccc1n2C[C@H]1CCN(C2CC(F)(F)C2)C1` [Example 402]: the IC50 was under 20 nM.
